Data on three compounds can be found in paper PMC10952582, “Pregnenolone sulfate analogues differentially modulate GABAA receptor closed/desensitised states” (British Journal of Pharmacology, 2023).

One experiment addresses T1, α1V296Lβ3γ2L GABAAR (Mus musculus, UniProt P22723+P62812+P63080, V323L).
T1 construct: expressed in transfected cells; host or cells: HEK 293 cells (ATCC CRL-1573)
As to the kind of experiment: Whole-cell voltage-clamp electrophysiology, minimally desensitising mutant α1V296Lβ3γ2L in HEK cells. It counts as cell-based, murine. How it is done: (§1) HEK 293 cells (ATCC Cat# CRL‐1573, RRID:CVCL_0045) were maintained and transfected under standard conditions. In brief, cells were grown in monolayers in Dulbecco's modified Eagle's medium supplemented with 10% v/v fetal calf serum, 100 U·ml^−1 of penicillin‐G and 100 μg·ml^−1 of streptomycin and incubated at 37°C in humidified 95% air/5% CO2.
(§2) Before transfection, HEK cells were plated onto 22 mm of glass coverslips (VWR) coated in poly‐L‐lysine (Sigma). Cells were transfected with α1 (wild‐type [wt] or mutant [mut]), β3 (wt), γ2L (wt or mut) and enhanced green fluorescent protein (eGFP) in an equimolar ratio (1:1:1:1), using a calcium‐phosphate precipitation protocol. The transfection solution was prepared from 4 μg of cDNA per coverslip, 20 μl of 340 mM of CaCl2 and 24 μl of 2× HEPES‐buffered saline (HBS) (50 mM of HEPES, 280 mM of NaCl and 2.8 mM of Na2HPO4). Cells were selected for electrophysiology after 16–30 h based on their morphology and moderate GFP fluorescence.
(§3) Coverslips with transfected HEK cells were transferred into a recording chamber on a Nikon Eclipse FN1 microscope with a 470‐nm LED for GFP fluorescence. Cells were continuously perfused with Krebs solution containing (mM) 140 NaCl, 4.7 KCl, 1.2 MgCl2, 2.52 CaCl2, 11 glucose and 5 HEPES (pH 7.4). Patch pipettes (thin‐walled filamented borosilicate glass capillaries; TW150F‐4; WPI, USA; 3–4 MΩ) were filled with an intracellular solution containing (mM) 140 CsCl, 2 NaCl, 2 MgCl2, 5 EGTA, 10 HEPES, 0.5 CaCl2, 2 Na‐ATP and 0.5 Na‐GTP (pH 7.2). Drugs were applied to cells using a Y‐tube delivery system (Mortensen & Smart, [2007]), with the PS analogues pre‐applied 10–12 s before co‐application with GABA.
(§4) HEK cells were voltage clamped at −30 mV using an Axopatch 200B amplifier (Molecular Devices, USA), and whole‐cell currents were filtered at 5 kHz (−36 dB), digitised at 50 kHz via a Digidata 1322A (Molecular Devices) and recorded to a Dell Optiplex 990 using Clampex 10.2 (Molecular Devices). Series resistance was compensated at 60%–70%, and only data with <20% deviation in series resistance would be included in subsequent analyses.
(§5) Weighted time constants for the decay phase (τw) were calculated by fitting a biexponential curve to the current decay waveform and applying the following equation: τw=A1.τ1+A2.τ2/A1+A2, where τ1 and τ2 represent time constants for the two exponential components of the decay phase and A1 and A2 are their relative area contributions.
(§6) Current responses from voltage‐clamp experiments were measured, and decays fitted using ClampFit 10.2 (Molecular Devices) to determine the respective time constants. In Origin, data were plotted as concentration–response curves, and curves fitted using the following inhibition equation: I/Imax=1−B^n/IC50^n+B^n, where I is the current response, B is the concentration of the PS analogue, n is the slope coefficient and IC50 is the analogue concentration producing 50% inhibition of GABA current (inhibitory potency). Potency values are presented as pIC50 with SEM values. The mean was transformed into a molar concentration by pIC50 = −log IC50. Other data are represented as the mean ± SEM.

The next experiment has as its target T2, α1F295Aβ3γ2L GABAAR (Mus musculus, UniProt P22723+P62812+P63080, F322A).
T2 construct: expressed in transfected cells; host or cells: HEK 293 cells (ATCC CRL-1573)
As to the kind of experiment: Whole-cell voltage-clamp electrophysiology, mutant α1F295Aβ3γ2L in HEK cells. It counts as cell-based, murine. How it is done:
as §1, §2, §3, §4, §5, §6

For the next experiment, the target named is T3, α1β3γ2LV262F GABAAR (Mus musculus, UniProt P62812).
T3 construct: expressed in transfected cells; host or cells: HEK 293 cells (ATCC CRL-1573)
As to the kind of experiment: Whole-cell voltage-clamp electrophysiology, highly desensitising mutant α1β3γ2LV262F in HEK cells. It counts as cell-based, murine. Here is the method:
as §1, §2, §3, §4, §5, §6

Experiment [1] addresses T4, α1F295A, F399Aβ3γ2L GABAAR (Mus musculus, UniProt P22723+P62812+P63080, F322A/F426A).
T4 construct: expressed in transfected cells; host or cells: HEK 293 cells (ATCC CRL-1573)
As to the kind of experiment: Whole-cell voltage-clamp electrophysiology, mutant α1F295A,F399Aβ3γ2L in HEK cells. It counts as cell-based, murine. Here is the method:
as §1, §2, §3, §4, §5, §6

The next experiment has as its target T5, α1F399Aβ3γ2L GABAAR (Mus musculus, UniProt P22723+P62812+P63080, F426A).
T5 construct: expressed in transfected cells; host or cells: HEK 293 cells (ATCC CRL-1573)
As to the kind of experiment: Whole-cell voltage-clamp electrophysiology, mutant α1F399Aβ3γ2L in HEK cells. It counts as cell-based, murine. How it is done:
as §1, §2, §3, §4, §5
Current responses from voltage‐clamp experiments were measured, and decays fitted using ClampFit 10.2 (Molecular Devices) to determine the respective time constants. […]

Experiment [2] addresses T6, α1β3γ2L GABAAR (Mus musculus, UniProt P62812).
T6 construct: expressed in transfected cells; host or cells: HEK 293 cells (ATCC CRL-1573)
As to the kind of experiment: Whole-cell voltage-clamp electrophysiology, wild-type α1β3γ2L GABAARs expressed in HEK cells. It counts as cell-based, murine. The note with it: for mean (weighted) decay time (τw) of GABA current: 1 nM PS analogue, 30 μM GABA. Here is the method: as §1, §2, §3, §4, §5, §6

Experiment [3] addresses T7, α1β3γ2L GABAAR (Mus musculus, UniProt P22723+P62812+P63080).
T7 construct: expressed in transfected cells; host or cells: HEK 293 cells (ATCC CRL-1573)
The experiment is described as above. It counts as cell-based, murine. Here is the method: as §1, §2, §3, §4, §5, §6

Experiment [4] deals with T6, α1β3γ2L GABAAR. As to the kind of experiment: Kinetic modelling and waveform fitting of GABA currents (ChanneLab). Set-up: species or system murine. The note with it: waveform fit. Here is the method: We used ChanneLab (Version 2.2; Synaptosoft) to build relatively simple kinetic models of the GABAAR. To explore the functional behaviour of PS analogues (compounds) 5 and 6, we incorporated concentration‐dependent PS analogue‐bound states into the model. Simulated currents were generated in ChanneLab and explored at different GABA and PS analogue concentrations. These were evaluated against GABA currents generated under experimental conditions, using the waveform fitting function in ChanneLab. Rate constants connecting receptor states were determined initially empirically with reference to previously published values and varied individually to optimise the fit to the data (seed values) prior to using waveform fitting and Runge–Kutta numerical integration (RK5) to eventually simulate the experimental GABA current profiles with 50 iterations. GABA‐activated membrane currents were fitted over their full timecourse of 20 s.
To investigate, simplified GABAAR models were constructed, incorporating some or all the following receptor states: an unbound closed state (R); GABA‐bound closed ‘composite’ state (RA) that incorporates one or more preactivation states that are not explicitly indicated or a closed (RA) and separate preactivated (RfA) state; a GABA‐bound activated state (RA*); and a desensitised state (RD) accessed via the receptor's activated state. These simple models enable the generation of simulated GABA‐dependent currents, with values for the rate constants determined initially empirically in broad accord with published parameters and manually adjusted to provide seed values before performing waveform fitting with unconstrained rate constants (Figure 8a).
RA* is the activated receptor open channel before moving to a desensitised state RD.

Setting [5] is: Decay inhibition (pIC50), GABA current weighted decay time constant.
The mark [6] stands for this setting: Steady-state inhibition (pIC50), steady-state GABA current.
[7] abbreviates: Steady-state inhibition (pIC50), 30 μM GABA, 20 s.
Setting [8] is: Decay inhibition (pIC50), potency for reducing GABA current weighted decay time constant, 30 μM GABA.
Where [9] appears, read: Peak inhibition (pIC50), peak current evoked by 30 μM GABA, analogue pre-applied 10–12 s and co-applied.
Where [10] appears, read: Steady-state inhibition (IC50), GABA current after 20 s of 30 μM GABA (near steady state).
[11] abbreviates: Steady-state inhibition (pIC50), GABA current after 20 s of 30 μM GABA (near steady state).
Where [12] appears, read: Decay inhibition (IC50), GABA current weighted decay time constant.

Some results are limits rather than exact numbers.

T2 sequence (P62812 28-455 F322A): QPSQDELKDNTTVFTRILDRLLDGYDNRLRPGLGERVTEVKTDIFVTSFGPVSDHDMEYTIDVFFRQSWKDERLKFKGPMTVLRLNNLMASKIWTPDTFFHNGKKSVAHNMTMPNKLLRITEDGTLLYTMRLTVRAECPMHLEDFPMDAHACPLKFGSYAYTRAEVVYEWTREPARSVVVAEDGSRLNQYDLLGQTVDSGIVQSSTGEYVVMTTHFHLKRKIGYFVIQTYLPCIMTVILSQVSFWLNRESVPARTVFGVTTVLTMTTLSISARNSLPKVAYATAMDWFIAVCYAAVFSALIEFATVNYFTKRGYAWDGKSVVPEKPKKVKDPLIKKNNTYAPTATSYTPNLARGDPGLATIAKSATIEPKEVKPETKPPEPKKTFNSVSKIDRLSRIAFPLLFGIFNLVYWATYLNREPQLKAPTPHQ
T2 sequence (P63080 26-473 partner): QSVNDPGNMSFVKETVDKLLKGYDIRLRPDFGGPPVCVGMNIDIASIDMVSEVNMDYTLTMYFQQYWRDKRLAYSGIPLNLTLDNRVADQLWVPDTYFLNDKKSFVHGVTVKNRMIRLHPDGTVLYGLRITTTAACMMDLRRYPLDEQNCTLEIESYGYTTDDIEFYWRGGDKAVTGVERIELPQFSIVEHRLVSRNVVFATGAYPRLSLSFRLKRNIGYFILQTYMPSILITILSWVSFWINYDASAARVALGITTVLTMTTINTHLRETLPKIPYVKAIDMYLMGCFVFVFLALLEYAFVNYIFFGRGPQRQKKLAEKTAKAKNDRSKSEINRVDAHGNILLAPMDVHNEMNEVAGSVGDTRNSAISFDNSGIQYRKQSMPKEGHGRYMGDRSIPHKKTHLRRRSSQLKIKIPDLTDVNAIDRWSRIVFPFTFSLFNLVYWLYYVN
T2 sequence (P22723 39-474 partner): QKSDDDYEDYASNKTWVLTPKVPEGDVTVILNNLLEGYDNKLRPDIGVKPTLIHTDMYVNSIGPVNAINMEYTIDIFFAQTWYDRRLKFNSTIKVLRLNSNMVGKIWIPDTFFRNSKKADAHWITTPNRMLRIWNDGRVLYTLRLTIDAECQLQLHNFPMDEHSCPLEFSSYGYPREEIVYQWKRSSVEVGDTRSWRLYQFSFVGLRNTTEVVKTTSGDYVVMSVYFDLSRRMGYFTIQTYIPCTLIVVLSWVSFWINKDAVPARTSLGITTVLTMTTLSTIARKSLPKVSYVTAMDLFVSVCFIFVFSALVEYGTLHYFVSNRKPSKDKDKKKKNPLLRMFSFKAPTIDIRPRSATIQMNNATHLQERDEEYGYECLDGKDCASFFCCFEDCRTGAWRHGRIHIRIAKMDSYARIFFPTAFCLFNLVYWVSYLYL
T5 sequence (P62812 28-455 F426A): as the sequence (P62812 28-455 F322A) above, with A295F, F399A counted along it
T5 sequence (P63080 26-473 partner): as the sequence (P63080 26-473 partner) above
T5 sequence (P22723 39-474 partner): as the sequence (P22723 39-474 partner) above
T1 sequence (P62812 28-455 V323L): as the sequence (P62812 28-455 F322A) above, with A295F, V296L counted along it
T1 sequence (P63080 26-473 partner): as the sequence (P63080 26-473 partner) above
T1 sequence (P22723 39-474 partner): as the sequence (P22723 39-474 partner) above
T6 sequence (P62812 28-455): as the sequence (P62812 28-455 F322A) above, with A295F counted along it
T6 sequence (P63080 26-473 partner): as the sequence (P63080 26-473 partner) above
T6 sequence (P22723 39-474 partner): as the sequence (P22723 39-474 partner) above
T3 sequence (P62812 28-455): as the sequence (P62812 28-455 F322A) above, with A295F counted along it
T3 sequence (P63080 26-473 partner): as the sequence (P63080 26-473 partner) above
T3 sequence (P22723 39-474 V300F partner): as the sequence (P22723 39-474 partner) above, with V262F counted along it
T7 sequence (P62812 28-455): as the sequence (P62812 28-455 F322A) above, with A295F counted along it
T7 sequence (P63080 26-473 partner): as the sequence (P63080 26-473 partner) above
T7 sequence (P22723 39-474 partner): as the sequence (P22723 39-474 partner) above
T4 sequence (P62812 28-455 F322A/F426A): as the sequence (P62812 28-455 F322A) above, with F399A counted along it
T4 sequence (P63080 26-473 partner): as the sequence (P63080 26-473 partner) above
T4 sequence (P22723 39-474 partner): as the sequence (P22723 39-474 partner) above

For the compound `C[C@]12CC[C@H](OS(=O)(=O)O)CC1=CCC1C2CC[C@@]2(C)C1CC[C@@H]2C(=O)CN1CCOCC1` (stereo partly drawn) [compound 5], the concentration for half-maximal inhibition (IC50) on α1V296Lβ3γ2L GABAAR (setting [5]) is 3.24 µM; at α1V296Lβ3γ2L GABAAR (setting [6]), 20.7 µM; against α1F295Aβ3γ2L GABAAR (setting [5]), 8.47 µM; against α1F295Aβ3γ2L GABAAR (setting [7]) it was 2.93 µM; on α1β3γ2LV262F GABAAR (setting [5]), 70.8 µM; at α1β3γ2LV262F GABAAR (setting [6]), 14.2 µM. In addition, the half-inhibitory concentration (IC50) in experiment [1] (setting [5]) is 7.21 µM; in experiment [1] (setting [7]) it was 5.22 µM; on α1F399Aβ3γ2L GABAAR (setting [5]), 7.89 µM; on α1F399Aβ3γ2L GABAAR (setting [7]) it was 8.36 µM; against α1β3γ2L GABAAR [3] (setting [8]) it was 117 µM; against α1β3γ2L GABAAR [3] (setting [9]), ~2000 µM. Also, the IC50 against α1β3γ2L GABAAR [3] (setting [10]) was ~1 µM; against α1β3γ2L GABAAR [3] (setting [11]) it was 0.843 µM. In addition, the “mean (weighted) decay time (τw) of GABA current” value (“mean (weighted) decay time (τw)” for short) at α1β3γ2L GABAAR [2] came to 3.7 ± 0.1 s. Also, the “rate constant k2, Model (b)” value at α1β3γ2L GABAAR [4] (Model (b): binding to RA forming RAP, then RAPd, 30 μM GABA) was found to be 62900 M⁻¹ s⁻¹. Moreover, the “rate constant k3, Model (b)” value on α1β3γ2L GABAAR [4] (Model (b), 30 μM GABA) amounted to 921000 s⁻¹.
On to `C[C@]12CC[C@H](OS(=O)(=O)O)CC1=CCC1C2CC[C@@]2(C)C1CC[C@@H]2C(=O)Cn1cccn1` (stereo partly drawn) [compound 6], for which the concentration for half-maximal inhibition (IC50) at α1V296Lβ3γ2L GABAAR (setting [12]) is > 100 µM; at α1V296Lβ3γ2L GABAAR (Steady-state inhibition (IC50), steady-state GABA current), > 100 µM; against α1F295Aβ3γ2L GABAAR (setting [12]) it was 1.4 µM; on α1F295Aβ3γ2L GABAAR (setting [5]), 1.35 µM; against α1F295Aβ3γ2L GABAAR (setting [7]) it was 4.51 µM; at α1β3γ2LV262F GABAAR (setting [5]), 2.88 µM. In addition, the half-maximal inhibitory concentration (IC50) was 25.1 µM at α1β3γ2LV262F GABAAR (setting [6]); 1.23 µM in experiment [1] (setting [5]); 4.2 µM in experiment [1] (Steady-state inhibition (IC50), 30 μM GABA, 20 s); 4.15 µM in experiment [1] (setting [7]); 1.49 µM on α1F399Aβ3γ2L GABAAR (setting [5]); 7.29 µM against α1F399Aβ3γ2L GABAAR (setting [7]). Moreover, the IC50 was 1.66 µM against α1β3γ2L GABAAR [3] (setting [8]), 220 ± 14.6 µM on α1β3γ2L GABAAR [3] (setting [9]), ~1 µM at α1β3γ2L GABAAR [3] (setting [10]) and 1.13 µM against α1β3γ2L GABAAR [3] (setting [11]). Besides, at α1β3γ2L GABAAR [2], the “mean (weighted) decay time (τw)” value came to 3.8 ± 0.2 s. In addition, the “fold difference in current decay potency, compound 6 vs compound 5” value at α1β3γ2L GABAAR [2] (wild-type α1β3γ2L, decay IC50 of 5 vs 6) is given as 70 fold. On α1β3γ2L GABAAR [4] (Model (c): binding to RA (RAP) and RD (RDP), 30 μM GABA), the “rate constant k4, Model (c)” value turned out to be 234000 M⁻¹ s⁻¹. Also, the “rate constant k2, Model (c)” value at α1β3γ2L GABAAR [4] (Model (c), 30 μM GABA) was determined as 129000 M⁻¹ s⁻¹. Besides, on α1β3γ2L GABAAR [4] (Model (c), 30 μM GABA), the “rate constant k‐4, Model (c)” value came to 184 s⁻¹. For the same compound, on α1β3γ2L GABAAR [4] (Model (d): binding to preactivated state RfA (RfAP) and RD), the “rate constant k2, Model (d)” value is 173000 M⁻¹ s⁻¹. Also, the “rate constant k4, Model (d)” value at α1β3γ2L GABAAR [4] (Model (d)) was found to be 184000 M⁻¹ s⁻¹. Further, the “rate constant k‐4, Model (d)” value on α1β3γ2L GABAAR [4] (Model (d)) was 307 s⁻¹.
Take `CC12CCC(OS(=O)(=O)O)CC1=CCC1C2CCC2(C)C(C(=O)Cn3cccc3)CCC12` (stereo not drawn) [compound 8]: at α1β3γ2L GABAAR [2], the “mean (weighted) decay time (τw)” value is on record as 3.6 ± 0.3 s. Further, the IC50 at α1β3γ2L GABAAR [3] (setting [8]) is 3.23 µM; on α1β3γ2L GABAAR [3] (setting [9]), 33.3 µM; against α1β3γ2L GABAAR [3] (setting [11]), 0.236 µM.

As usually defined, the IC50 is the midpoint of a concentration-inhibition curve.
